From the NIST ThermoML archive (doi:10.1021/je100170v)

Legend:
[1] = xn = mol fraction of the nth substance listed; conditions: 101 kPa, Liquid; for speed of sound: Sing-around technique in a fixed-path interferometer
[2] = Liquid; for mass density / speed of sound: 101 kPa; for speed of sound: Sing-around technique in a fixed-path interferometer; for viscosity: 101.3 kPa

CC(=O)c1ccccc1 [acetophenone] + CCCCCCCCO
[1]
Conditions | mass density, 298.15 K [kg/m3] | mass density, 308.15 K [kg/m3] | mass density, 318.15 K [kg/m3] | speed of sound, 298.15 K [m/s] | viscosity, 298.15 K [mPa·s] | viscosity, 308.15 K [mPa·s] | viscosity, 318.15 K [mPa·s]
x2 = 0 | 1023.1 | 1014.9 | 1007.2 | 1296.2 | 1.653 | 1.411 | 1.115
x2 = 0.093 | 997.7 | 989.7 | 982.4 | 1278.5 | 1.713 | 1.528 | 1.208
x2 = 0.1874 | 973.7 | 966.1 | 958.9 | 1266.5 | 1.831 | 1.669 | 1.327
x2 = 0.2834 | 951.2 | 943.6 | 936.6 | 1263.3 | 1.994 | 1.785 | 1.424
x2 = 0.3808 | 929.7 | 922.2 | 915.5 | 1264.7 | 2.205 | 1.949 | 1.535
x2 = 0.4799 | 909.3 | 902 | 895.3 | 1271.8 | 2.519 | 2.167 | 1.671
x2 = 0.5805 | 889.8 | 882.5 | 876 | 1281.8 | 2.997 | 2.4 | 1.807
x2 = 0.6828 | 871.3 | 864.1 | 857.7 | 1295.4 | 3.65 | 2.799 | 2.095
x2 = 0.7868 | 853.8 | 846.6 | 840.2 | 1311.1 | 4.475 | 3.249 | 2.432
x2 = 0.8925 | 837.1 | 829.9 | 823.6 | 1327.8 | 5.625 | 3.931 | 2.926

CC(=O)N(C)C [N,N-dimethylethanamide] + CCCCCCCCO
[1]
Conditions | mass density, 298.15 K [kg/m3] | mass density, 308.15 K [kg/m3] | mass density, 318.15 K [kg/m3] | speed of sound, 298.15 K [m/s] | viscosity, 298.15 K [mPa·s] | viscosity, 308.15 K [mPa·s] | viscosity, 318.15 K [mPa·s]
x2 = 0 | 937.2 | 925.8 | 917.1 | 1458.2 | 0.937 | 0.841 | 0.763
x2 = 0.0692 | 923.5 | 912.7 | 904.4 | 1433.5 | 1.072 | 0.942 | 0.851
x2 = 0.1433 | 910.4 | 900.2 | 892.2 | 1412.4 | 1.246 | 1.063 | 0.947
x2 = 0.2228 | 897.7 | 888.1 | 880.4 | 1390.3 | 1.418 | 1.194 | 1.046
x2 = 0.3084 | 885.5 | 876.3 | 868.9 | 1372.5 | 1.702 | 1.376 | 1.185
x2 = 0.4008 | 873.7 | 864.8 | 857.8 | 1360 | 2.023 | 1.614 | 1.361
x2 = 0.5009 | 862.3 | 853.9 | 847 | 1353.4 | 2.399 | 1.893 | 1.585
x2 = 0.6095 | 851.4 | 843.4 | 836.7 | 1348.5 | 3.111 | 2.406 | 1.935
x2 = 0.728 | 840.9 | 833.1 | 826.6 | 1346.4 | 4.009 | 2.988 | 2.35
x2 = 0.8576 | 830.9 | 823.4 | 816.9 | 1348 | 5.318 | 3.849 | 2.965

CCCCCCCCO [octan-1-ol] + CC(=O)c1ccccc1
[1], x1 = 1
Conditions | mass density [kg/m3] | speed of sound [m/s] | viscosity [mPa·s]
298.15 K | 821.5 | 1349.2 | 7.365
308.15 K | 814 | – | 5.251
318.15 K | 807.7 | – | 3.865

CC(=O)N(C)C [N,N-dimethylethanamide]
[2]
Conditions | mass density [kg/m3] | speed of sound [m/s] | viscosity [mPa·s]
298.15 K | 937.2 | 1458.2 | 0.937
308.15 K | 925.8 | – | 0.841
318.15 K | 917.1 | – | 0.763

COCCO [2-methoxyethan-1-ol] + CCCCCCCCO
[1]
Conditions | mass density, 298.15 K [kg/m3] | mass density, 308.15 K [kg/m3] | mass density, 318.15 K [kg/m3] | speed of sound, 298.15 K [m/s] | viscosity, 298.15 K [mPa·s] | viscosity, 308.15 K [mPa·s] | viscosity, 318.15 K [mPa·s]
x2 = 0 | 959.5 | 952.1 | 945.8 | 1339.3 | 1.543 | 1.256 | 1.047
x2 = 0.061 | 943 | 935.6 | 929.5 | 1334.3 | 1.677 | 1.368 | 1.141
x2 = 0.1275 | 927.1 | 920 | 913.8 | 1329.3 | 1.822 | 1.454 | 1.209
x2 = 0.2003 | 912.1 | 904.9 | 898.8 | 1323 | 1.983 | 1.582 | 1.304
x2 = 0.2804 | 897.4 | 890.5 | 884.4 | 1318 | 2.145 | 1.749 | 1.426
x2 = 0.3688 | 883.4 | 876.4 | 870.5 | 1314.6 | 2.408 | 1.948 | 1.571
x2 = 0.4671 | 869.9 | 862.9 | 857 | 1315.4 | 2.774 | 2.19 | 1.781
x2 = 0.5769 | 857 | 850 | 844 | 1320 | 3.432 | 2.67 | 2.062
x2 = 0.7004 | 844.6 | 837.6 | 831.5 | 1326.5 | 4.238 | 3.19 | 2.466
x2 = 0.8402 | 832.8 | 825.6 | 819.4 | 1335.8 | 5.412 | 4.012 | 3.064

CCCCCCCCO [octan-1-ol]
[2]
Conditions | mass density [kg/m3] | speed of sound [m/s] | viscosity [mPa·s]
298.15 K | 821.5 | 1349.2 | 7.365
308.15 K | 814 | – | 5.251
318.15 K | 807.7 | – | 3.865

CCCCCCCCO [octan-1-ol] + CC(=O)N(C)C
[1], x1 = 1
Conditions | mass density [kg/m3] | speed of sound [m/s] | viscosity [mPa·s]
298.15 K | 821.5 | 1349.2 | 7.365
308.15 K | 814 | – | 5.251
318.15 K | 807.7 | – | 3.865

CCCCCCCCO [octan-1-ol] + COCCO
[1], x1 = 1
Conditions | mass density [kg/m3] | speed of sound [m/s] | viscosity [mPa·s]
298.15 K | 821.5 | 1349.2 | 7.365
308.15 K | 814 | – | 5.251
318.15 K | 807.7 | – | 3.865

COCCO [2-methoxyethan-1-ol]
[2]
Conditions | mass density [kg/m3] | speed of sound [m/s] | viscosity [mPa·s]
298.15 K | 959.5 | 1339.3 | 1.543
308.15 K | 952.1 | – | 1.256
318.15 K | 945.8 | – | 1.047

CC(=O)c1ccccc1 [acetophenone]
[2]
Conditions | mass density [kg/m3] | speed of sound [m/s] | viscosity [mPa·s]
298.15 K | 1023.1 | 1296.2 | 1.653
308.15 K | 1014.9 | – | 1.411
318.15 K | 1007.2 | – | 1.115
